From US20190290621A1, “COMPOSITIONS AND METHODS FOR TREATING HIV-1 LATENCY” (priority 2017, published 2019)

Key:
[1] = mice; cited from earlier work
HIV Gag = assay: Western blot for HIV Gag in JLAT10.6 cells; format: cell-based; details: 24 h
HIV-1 LTR = assay: ChIP assay of acetylated histone H3 at the HIV-1 LTR; format: cell-based; details: JLAT10.6 cells, 6 hours, HIV-1 LTR qPCR
Description: Since histone H3 is […] by Class I HDACs and known to bind to the HIV LTR promoter, we determined H3 acetylation status of the HIV-1 LTR in JLAT10.6 cells. […] The ChIP assay was performed using a ChIP kit (ab500) (Abcam; Cambridge, Mass.). Briefly, an anti-rabbit IgG (Cell Signaling Technologies; Danvers, Mass.) was used as an isotype control. Actin was used as an internal control. Total chromatin (input) and the immunoprecipitated chromatin were used as templates and HIV-1 LTR was amplified by quantitative PCR using HIV-1 LTR (forward: 5-[…] […]-3, reverse: 5-TAG […] A-3) and actin primers. Using ChIP, we recovered 15% of the DNA from SDL148-treated cells using anti-acetylated histone H3 antibody compared to less than 5% recovery with DMSO-treated cells, and less than 1% from the IgG-negative controls. […] An alternative mechanism is modulation of lysines in Tat that impact its ability to interact with TAR of the HIV-1 LTR (37-39).

HDAC3 = HDAC3 (Homo sapiens, UniProt O15379); details: cited from earlier work
JLAT10.6 cells = assay: HIV-1 latency reactivation screen in JLAT10.6 cells (GFP by FACS); format: cell-based
Description: For screening purposes, JLAT10.6 cells, a T-cell line that has been widely used for HIV-1 reactivation studies (32-34) were utilized. In this cell line, HIV-1Δenv from the NL4-3 backbone with GFP replacing the Nef gene is stably integrated into the genome and is expressed at undetectable levels. Upon HIV reactivation with latency reversing agents (LRAs), viral production leads to expression of GFP that was measured by fluorescent activation cell sorting (FACS) analysis using a Becton Dickinson FACS machine. Analysis was performed using BD […] PRO software (BD Biosciences; Franklin Lakes, N.J.). The stronger the HIV reactivation, the higher the percentage of GFP-positive cells observed. JLAT10.6 cells were incubated with HDAC inhibitors at concentrations of 1 and 10 μM for 24 hours, using TNF-α and SAHA (Vorinostat) as positive controls.

Class I HDAC = assay: Western blot for acetylated histone H3 as a measure of Class I HDAC inhibition; format: cell-based; details: Jurkat cells and primary resting CD4+ T-cells, 8 hours
Class II HDAC = assay: Western blot for acetylated tubulin as a measure of Class II HDAC inhibition; format: cell-based; details: Jurkat cells and primary resting CD4+ T-cells, 8 hours

Chain of HDAC3 (O15379 whole entry): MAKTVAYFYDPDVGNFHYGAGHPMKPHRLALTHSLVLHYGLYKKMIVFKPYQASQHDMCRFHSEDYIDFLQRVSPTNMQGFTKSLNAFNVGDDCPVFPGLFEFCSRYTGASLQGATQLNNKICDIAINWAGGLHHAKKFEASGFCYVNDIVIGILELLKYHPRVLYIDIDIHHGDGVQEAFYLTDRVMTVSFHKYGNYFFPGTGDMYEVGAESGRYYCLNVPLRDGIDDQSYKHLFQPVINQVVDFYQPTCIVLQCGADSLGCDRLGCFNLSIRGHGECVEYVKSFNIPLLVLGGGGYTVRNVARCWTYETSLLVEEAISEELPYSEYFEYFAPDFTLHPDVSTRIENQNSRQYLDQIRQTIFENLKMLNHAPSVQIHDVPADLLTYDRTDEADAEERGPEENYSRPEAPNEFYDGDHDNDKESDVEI
Chain of HDAC3 (Q9Y618 395-489 partner limits assumed): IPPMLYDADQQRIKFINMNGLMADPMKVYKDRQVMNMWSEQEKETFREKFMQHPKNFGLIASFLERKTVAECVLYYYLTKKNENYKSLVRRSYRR

Molecule | bioavailability [1] | expression of HIV Gag (HIV Gag) | DNA recovered using anti-acetylated histone H3 antibody (HIV-1 LTR) [%] | potency against HDAC3 (HDAC3) | reactivation of HIV expression at 100 nM (JLAT10.6 cells; 100 nM) | potency in reactivating HIV from latency compared with vorinostat (JLAT10.6 cells; 1 and 10 μM, 24 hours) | EC50 (JLAT10.6 cells; read-out: EC50 to reactivate HIV from latency) [nM] | histone H3 acetylation (Class I HDAC) | acetylation of tubulin (Class II HDAC)
largazole [SDL148] | excellent bioavailability | enhanced expression of HIV Gag | 15 | picomolar range | the only compound able to reactivate HIV expression significantly | comparable or more potent than vorinostat | 150 |  | 
O=C(CCCCCCC(=O)Nc1ccccc1)NO [SAHA, suberoylanilide hydroxamic acid] |  |  |  |  |  |  |  | enhanced the acetylation of both histone H3 and tubulin | enhanced the acetylation of both histone H3 and tubulin
